Assay [1] deals with MDA-MB-231. Kind of assay: Antimigratory activity in human MDA-MB-231 cells xenografted in BALB/c nude mouse assessed as downregulation of MMP2 level at 50 mg/kg, po for 14 days in presence of 1:1 of compound:Olaparib by H and E staining based IHC analysis. The format is functional, organism-based. Conditions: time 14.0 day.
For assay [2], the system named is MCF7. Kind of assay: Induction of HR DNA repair in human MCF7 cells assessed as decrease in RAD51 level at 4 uM incubated for 48 hrs by DAPI staining based immunofluorescence analysis. It counts as functional, cell-based.
The test system of assay [3] is MDA-MB-231. Kind of assay: Antimetastatic activity against human MDA-MB-231 cells xenografted in lungs of BALB/c nude mouse assessed as decrease in lung metastatic nodules at 50 mg/kg administered once a day measured after 14 days in presence of 1:1 of compound:Olaparib by H and E staining based analysis. The format is functional, organism-based. Conditions: time 14.0 day. Background: In xenograft studies the graft and the host belong to different species.

The subject of assay [4] is MDA-MB-231. Put plainly: Antimigratory activity in human MDA-MB-231 cells assessed as upregulation of E-cadherin level at 4 uM incubated for 2 days by immunoblot analysis. The format is functional, cell-based. Conditions: time 2.0 day.
Assay [5] concerns MCF7. Kind of assay: Induction of hypoxia in human MCF7 cells assessed as upregulation of HIF-1alpha level at 4 uM incubated for 2 days in presence 1:1 of Olaparib by Western blot analysis. It counts as functional, cell-based. The following applies: time 2.0 day.
The subject of another assay is HCC1937. Kind of assay: Antiproliferative activity against human HCC1937 cells assessed as cell growth inhibition.
Assay [6] concerns MDA-MB-231. Kind of assay: Antiproliferative activity against human MDA-MB-231 cells assessed as cell growth inhibition.
For assay [7], the system named is MDA-MB-231. Put plainly: Antimigratory activity in human MDA-MB-231 cells xenografted in BALB/c nude mouse assessed as upregulation of E-cadherin level at 50 mg/kg, po for 14 days in presence of 1:1 of compound:Olaparib by H and E staining based IHC analysis. The format is functional, organism-based. Conditions: time 14.0 day.
For assay [8], the system named is MDA-MB-231. Put plainly: Induction of DNA damage in human MDA-MB-231 cells assessed as increase in gamma-H2AX level at 4 uM incubated for 48 hrs by DAPI staining based immunofluorescence analysis. The format is functional, cell-based.
The subject of assay [9] is MDA-MB-231. Kind of assay: Antimigratory activity against human MDA-MB-231 cells at 4 uM incubated for 1 hr in presence of 1:1 of compound:Olaparib by wound healing assay. The format is functional, cell-based.
Assay [10] concerns MDA-MB-231. Put plainly: Induction of DNA damage in human MDA-MB-231 cells assessed as increase in gamma-H2AX level at 4 uM incubated for 48 hrs in presence of 1:1 of compound:Olaparib by DAPI staining based immunofluorescence analysis. It counts as functional, cell-based.
For assay [11], the system named is MCF7. Put plainly: Induction of cell cycle arrest at G2/M phase in human MCF7 cells at 4 uM by Annexin-V-FLUOS staining based flow cytometry. It counts as functional. (In general: A flow cytometer gives signals particle by particle.)
For assay [12], the system named is MCF7. Kind of assay: Induction of cell cycle arrest at G2/M phase in human MCF7 cells at 4 uM in presence of 1:1 of compound:Olaparib by Annexin-V-FLUOS staining based flow cytometry. It counts as functional.
In assay [13] the test system is MCF7. Kind of assay: Antimigratory activity in human MCF7 cells assessed as downregulation of MMP-2 level at 4 uM incubated for 2 days in presence of 1:1 of compound:Olaparib by immunoblot analysis. It counts as functional, cell-based. Conditions: time 2.0 day.
Assay [14] has as its target Poly [ADP-ribose] polymerase 1 (Homo sapiens, UniProt P09874). Put plainly: Inhibition of PARP1 in human MDA-MB-231 cells xenografted in BALB/c nude mouse at 50 mg/kg, po for 14 days in presence of 1:1 of compound:Olaparib by H and E staining based IHC analysis. It counts as organism-based. The following applies: time 14.0 day.
Assay [15] deals with MCF7. Kind of assay: cells. Conditions: Homo sapiens.

Active and inactive are the calls of the source. The rule behind the calls is not given here.

Poly [ADP-ribose] polymerase 1, sequence (P09874 whole entry): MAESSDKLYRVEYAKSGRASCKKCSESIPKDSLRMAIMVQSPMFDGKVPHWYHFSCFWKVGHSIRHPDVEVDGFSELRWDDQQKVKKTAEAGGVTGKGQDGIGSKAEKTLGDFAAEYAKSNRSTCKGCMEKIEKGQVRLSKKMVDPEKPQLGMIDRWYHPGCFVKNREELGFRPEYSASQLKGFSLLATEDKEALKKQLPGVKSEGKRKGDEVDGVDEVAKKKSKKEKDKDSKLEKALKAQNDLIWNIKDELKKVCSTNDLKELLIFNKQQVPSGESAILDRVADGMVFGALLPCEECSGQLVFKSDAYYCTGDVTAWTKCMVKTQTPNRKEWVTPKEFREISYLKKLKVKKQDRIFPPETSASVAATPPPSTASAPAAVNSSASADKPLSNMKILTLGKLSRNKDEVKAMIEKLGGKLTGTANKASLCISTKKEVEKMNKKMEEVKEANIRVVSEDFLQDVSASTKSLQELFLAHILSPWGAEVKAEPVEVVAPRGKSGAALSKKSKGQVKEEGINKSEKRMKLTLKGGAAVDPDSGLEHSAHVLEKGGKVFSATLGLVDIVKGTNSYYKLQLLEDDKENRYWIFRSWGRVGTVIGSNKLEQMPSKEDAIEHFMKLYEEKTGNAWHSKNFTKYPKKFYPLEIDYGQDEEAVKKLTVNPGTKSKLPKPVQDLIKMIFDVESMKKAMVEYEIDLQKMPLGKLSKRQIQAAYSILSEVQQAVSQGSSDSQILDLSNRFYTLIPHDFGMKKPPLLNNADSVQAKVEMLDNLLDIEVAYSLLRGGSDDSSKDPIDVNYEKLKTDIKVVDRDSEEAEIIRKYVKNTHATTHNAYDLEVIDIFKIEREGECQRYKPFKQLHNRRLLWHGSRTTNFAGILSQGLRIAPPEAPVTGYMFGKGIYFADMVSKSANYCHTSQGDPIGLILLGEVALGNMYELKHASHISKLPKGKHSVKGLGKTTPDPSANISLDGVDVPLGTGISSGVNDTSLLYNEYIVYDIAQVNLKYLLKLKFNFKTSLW

For the compound `Cc1ccc(Nc2nccc(N(C)c3ccc4c(C)n(C)nc4c3)n2)cc1S(N)(=O)=O` [PAZOPANIB], the result in the assay on MDA-MB-231 [1], with MCF7 [2], with MDA-MB-231 [3], in the assay on MDA-MB-231 [4], in the assay with MCF7 [5] and with MDA-MB-231 [7] was Active. The outcome in the assay on MDA-MB-231 [8], in the assay on MDA-MB-231 [9], in the assay on MDA-MB-231 [10], in the assay with MCF7 [11], in the assay with MCF7 [12] and with MCF7 [13] was Active. In addition, the IC50 in the assay on HCC1937, with MDA-MB-231 [6] and in the assay on MCF7 [15] was greater than 10 µM in each case. Also, the inhibition result in [14] was “Active”.

For orientation: IC50 means the concentration needed to halve the response being measured.
